Measurements published in BindingDB's records for patent US20250313563 (The Broad Institute, 2025).
Values joined by “and” are separate entries in the source; they are usually repeats but may differ in a detail not shown here. Identical values can stand only once.

How the values were obtained:
[1] = target: Glycogen synthase kinase-3 beta (Homo sapiens, UniProt P49841); assay: TR-FRET Assay
Outline: (§1)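 TR-FRET readout: streptavidin-d2 (40 nM in added detection mix) plus Tb-anti-pSer641 Ab (2 nM in mix). Steps were 30 min compound preincubation, kinase reaction, then EDTA stop.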

[2] = target: Glycogen synthase kinase-3 alpha (Homo sapiens, UniProt P49840); assay: TR-FRET Assay
Chain of Glycogen synthase kinase-3 alpha (P49840 whole entry): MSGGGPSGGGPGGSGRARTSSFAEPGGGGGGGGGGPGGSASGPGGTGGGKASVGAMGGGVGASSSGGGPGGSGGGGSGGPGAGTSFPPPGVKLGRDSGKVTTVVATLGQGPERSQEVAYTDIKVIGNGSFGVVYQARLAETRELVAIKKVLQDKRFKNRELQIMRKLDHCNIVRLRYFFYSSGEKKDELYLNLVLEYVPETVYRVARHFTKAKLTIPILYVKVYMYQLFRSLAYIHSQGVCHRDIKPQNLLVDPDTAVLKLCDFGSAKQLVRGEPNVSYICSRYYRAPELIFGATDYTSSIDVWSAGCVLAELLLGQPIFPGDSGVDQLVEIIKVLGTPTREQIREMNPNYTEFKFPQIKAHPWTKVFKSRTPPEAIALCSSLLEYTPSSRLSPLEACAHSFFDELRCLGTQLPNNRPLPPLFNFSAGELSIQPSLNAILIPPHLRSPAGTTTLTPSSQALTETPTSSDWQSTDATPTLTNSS
Outline: as §1

Chain of Glycogen synthase kinase-3 beta (P49841 whole entry): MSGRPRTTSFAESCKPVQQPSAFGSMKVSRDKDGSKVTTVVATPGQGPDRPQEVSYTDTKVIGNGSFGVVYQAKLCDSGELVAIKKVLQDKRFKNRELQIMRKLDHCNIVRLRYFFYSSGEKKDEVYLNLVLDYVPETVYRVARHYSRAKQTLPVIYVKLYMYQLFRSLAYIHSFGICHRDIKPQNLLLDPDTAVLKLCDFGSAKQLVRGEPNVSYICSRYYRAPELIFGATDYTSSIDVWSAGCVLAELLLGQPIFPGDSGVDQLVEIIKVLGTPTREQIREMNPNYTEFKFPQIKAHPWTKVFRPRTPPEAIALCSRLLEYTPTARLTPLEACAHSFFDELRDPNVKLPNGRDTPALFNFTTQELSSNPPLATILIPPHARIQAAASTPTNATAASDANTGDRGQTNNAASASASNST

Structure (SMILES) | IC50 [1] | IC50 [2]
CC[C@]1(c2cccc(-c3ccncc3Cl)c2)C2=CN=NC2NC2=C1C(=O)NC(C)(C)C2 (some centres not stated) [US20250313563, Compound 948020] | 100 to 1000 nM | 100 to 1000 nM
CC[C@@]1(c2cccc(-c3ccncc3C)c2)C2=CN=NC2NC2=C1C(=O)NC1(CCCC1)C2 (some centres not stated) [US20250313563, Compound 948022] | < 100 nM and 100 to 1000 nM | < 100 nM
CC1(C)CC(=O)C2=C(C1)NC1=C(CN=N1)[C@]21COC2(CN(C(=O)Cc3ccccc3)C2)C1 [US20250313563, Compound 948036] | 100 to 1000 nM | 100 to 1000 nM
CC1(C)CC(=O)C2=C(C1)NC1=C(CN=N1)[C@@]21COC2(CN(C(=O)Cc3ccccc3)C2)C1 [US20250313563, Compound 948037] | < 100 nM | < 100 nM
Cc1ccc(C(=O)N2CC3(C2)C[C@@]2(CO3)C3=C(N=NC3)NC3=C2C(=O)CC(C)(C)C3)cc1C [US20250313563, Compound 948039] | 1000 to 5000 nM | 100 to 1000 nM
CC(=O)N1CCC2(C1)CC1(CO2)C2=C(N=NC2)NC2=C1C(=O)CC(C)(C)C2 (configuration not stated) [US20250313563, Compound 948040] | 100 to 1000 nM | < 100 nM
CCC1(c2cccc(C(F)(F)F)c2)C2=CN=NC2NC2=C1C(=O)N(c1cccc(C)c1)CC2 (configuration not stated) [US20250313563, Compound 948052] | 100 to 1000 nM | < 100 nM
CC[C@]1(c2cccc([C@H](C)c3ncccn3)c2)C2=CN=NC2NC2=C1C(=O)CC(C)(C)C2 (some centres not stated) [US20250313563, Compound 948057] | 1000 to 5000 nM | 100 to 1000 nM
CC[C@]1(c2cccc([C@@H](C)c3ncccn3)c2)C2=CN=NC2NC2=C1C(=O)CC(C)(C)C2 (some centres not stated) [US20250313563, Compound 948058] | < 100 nM and 1000 to 5000 nM | < 100 nM and 100 to 1000 nM
CC[C@@]1(c2cccc([C@H](C)c3ncccn3)c2)C2=CN=NC2NC2=C1C(=O)CC(C)(C)C2 (some centres not stated) [US20250313563, Compound 948060] | < 100 nM and 1000 to 5000 nM | < 100 nM and 100 to 1000 nM
CC[C@@]1(c2cccc([C@@H](C)c3ncccn3)c2)C2=CN=NC2NC2=C1C(=O)CC(C)(C)C2 (some centres not stated) [US20250313563, Compound 948061] | 1000 to 5000 nM | 100 to 1000 nM
CCC1(c2cccc(-c3ccnc(C)n3)c2)C2=CN=NC2NC2=C1C(=O)CC(C)(C)C2 (configuration not stated) [US20250313563, Compound 948088] | 1000 to 5000 nM | 100 to 1000 nM
CCC1(c2cccc(-c3cc(C)ncn3)c2)C2=CN=NC2NC2=C1C(=O)CC(C)(C)C2 (configuration not stated) [US20250313563, Compound 948089] | 100 to 1000 nM | < 100 nM
CCC1(c2cccc(-c3ncnc(C)c3C)c2)C2=CN=NC2NC2=C1C(=O)CC(C)(C)C2 (configuration not stated) [US20250313563, Compound 948090] | 100 to 1000 nM | < 100 nM
CCC1(c2cccc(-c3nc(C)ncc3C)c2)C2=CN=NC2NC2=C1C(=O)CC(C)(C)C2 (configuration not stated) [US20250313563, Compound 948091] | 100 to 1000 nM | < 100 nM
CCC1(c2cccc(-c3ccnc(OC)n3)c2)C2=CN=NC2NC2=C1C(=O)CC(C)(C)C2 (configuration not stated) [US20250313563, Compound 948092] | < 100 nM | < 100 nM
CCC1(c2cccc(-c3cc(OC)ncn3)c2)C2=CN=NC2NC2=C1C(=O)CC(C)(C)C2 (configuration not stated) [US20250313563, Compound 948093] | 100 to 1000 nM | < 100 nM
CC1(C)CC(=O)C2=C(C1)NC1=C(CN=N1)C21CCN(S(=O)(=O)c2ccc(F)c(Cl)c2)CC1 [US20250313563, Compound 948117] | < 100 nM | < 100 nM
CC1(C)CC(=O)C2=C(C1)NC1=C(CN=N1)C21CCN(S(=O)(=O)c2cccc(Cl)c2F)CC1 [US20250313563, Compound 948118] | < 100 nM and 100 to 1000 nM | < 100 nM
CC1(C)CC(=O)C2=C(C1)NC1=C(CN=N1)C21CCN(S(=O)(=O)c2ccc(F)c(F)c2)CC1 [US20250313563, Compound 948119] | < 100 nM | < 100 nM
CC1(C)CC(=O)C2=C(C1)NC1=C(CN=N1)C21CCN(S(=O)(=O)c2cnc3cccnn23)CC1 [US20250313563, Compound 948120] | < 100 nM and 1000 to 5000 nM | < 100 nM and 100 to 1000 nM
CC1(C)CC(=O)C2=C(C1)NC1=C(CN=N1)C21CCN(S(=O)(=O)c2cc(F)ccc2F)CC1 [US20250313563, Compound 948121] | < 100 nM and 100 to 1000 nM | < 100 nM and 100 to 1000 nM
CC1(C)CC(=O)C2=C(C1)NC1=C(CN=N1)C21CCN(S(=O)(=O)c2cc(Cl)ccc2Cl)CC1 [US20250313563, Compound 948122] | 100 to 1000 nM | < 100 nM
CC1(C)CC(=O)C2=C(C1)NC1=C(CN=N1)C21CCN(S(=O)(=O)c2cnn(CC(F)(F)F)c2)CC1 [US20250313563, Compound 948123] | < 100 nM and 100 to 1000 nM | < 100 nM and 100 to 1000 nM
CC[C@]1(c2cccc(-c3ccnc(C)c3)c2)C2=CN=NC2NC2=C1C(=O)N[C@@]1(CCOC1)C2 (some centres not stated) [US20250313563, Compound 948140] | 100 to 1000 nM | < 100 nM
CC[C@]1(c2cccc(-c3ccnc(C)c3)c2)C2=CN=NC2NC2=C1C(=O)N[C@]1(CCOC1)C2 (some centres not stated) [US20250313563, Compound 948141] | > 5000 nM | 1000 to 5000 nM

Structure (SMILES) | IC50 [1] | IC50 [2]
CC[C@@]1(c2cccc(C3=C4CC=C(C)N=C4N=CC3)c2)C2=CN=NC2NC2=C1C(=O)NC(C)(C)C2 (some centres not stated) [US20250313563, Compound 948143] | 100 to 1000 nM | < 100 nM
CC[C@]1(c2cccc(-c3ccnc(C)c3)c2)C2=CN=NC2NC2=C1C(=O)N[C@@]1(CCCOC1)C2 (some centres not stated) [US20250313563, Compound 948144] | 100 to 1000 nM | < 100 nM
CC[C@]1(c2cccc(-c3ccnc(C)c3)c2)C2=CN=NC2NC2=C1C(=O)N[C@]1(CCCOC1)C2 (some centres not stated) [US20250313563, Compound 948146] | > 5000 nM | 1000 to 5000 nM
CC[C@@]1(c2cccc(-c3ccnc(C)c3)c2)C2=CN=NC2NC2=C1C(=O)N[C@@]1(CCOC1)C2 (some centres not stated) [US20250313563, Compound 948149] | 100 to 1000 nM | < 100 nM
CC[C@@]1(c2cccc(-c3c(F)cncc3OC)c2)C2=CN=NC2NC2=C1C(=O)NC(C)(C)C2 (some centres not stated) [US20250313563, Compound 948150] | < 100 nM and 100 to 1000 nM | < 100 nM
CC[C@]1(c2cccc(C3=C4CC=C(C)N=C4N=CC3)c2)C2=CN=NC2NC2=C1C(=O)NC(C)(C)C2 (some centres not stated) [US20250313563, Compound 948151] | > 5000 nM | 100 to 1000 nM
CC1(C)CC(=O)C2=C(C1)NC1=C(CN=N1)[C@]21COC2(CN(C(=O)C(F)(F)F)C2)C1 [US20250313563, Compound 948156] | 100 to 1000 nM | < 100 nM
CCC1(c2cccc(N(C)c3ncccn3)c2)C2=C(CC(C)(C)NC2=O)NC2N=NC(C)=C21 (configuration not stated) [US20250313563, Compound 948175] | < 100 nM | < 100 nM
CCC1(c2cccc(N(C)c3ncccn3)c2)C2=C(CC(C)(C)NC2=O)NC2N=NC(C(F)(F)F)=C21 (configuration not stated) [US20250313563, Compound 948176] | < 100 nM | < 100 nM
CCC1(c2cccc(S(=O)(=O)CC3CC3)c2)C2=CN=NC2NC2=C1C(=O)NC(C)(C)C2 (configuration not stated) [US20250313563, Compound 948177] | 100 to 1000 nM | < 100 nM
CCC1(c2cccc(S(=O)(=O)CC3CC3)c2)C2=C(CC(C)(C)NC2=O)NC2N=NC(C)=C21 (configuration not stated) [US20250313563, Compound 948178] | < 100 nM | < 100 nM
CCC1(c2cccc(S(=O)(=O)CC3CC3)c2)C2=C(CC(C)(C)NC2=O)NC2=C1C(C(F)(F)F)N=N2 (configuration not stated) [US20250313563, Compound 948179] | < 100 nM | < 100 nM
CCC1(c2cccc(-c3cncn3C)c2)C2=C(CC(C)(C)NC2=O)NC2N=NC(C(F)(F)F)=C21 (configuration not stated) [US20250313563, Compound 948180] | < 100 nM | < 100 nM
CC[C@]1(c2cccc(-c3ccnc(C)c3C)c2)C2=C(CC(C)(C)NC2=O)NC2N=NC(C(F)(F)F)=C21 (some centres not stated) [US20250313563, Compound 948181] | 100 to 1000 nM | 100 to 1000 nM
CC[C@]1(c2cccc(-c3ccnc(C)c3C)c2)C2=C(CC(C)(C)NC2=O)NC2N=NC(C)=C21 (some centres not stated) [US20250313563, Compound 948183] | > 5000 nM | 1000 to 5000 nM
CC[C@@]1(c2cccc(-c3ccnc(C)c3C)c2)C2=CN=NC2NC2=C1C(=O)NC(C)(C)C2 (some centres not stated) [US20250313563, Compound 948184] | 100 to 1000 nM and 1000 to 5000 nM | < 100 nM and 100 to 1000 nM
CC[C@]1(c2cccc(-c3ccnc(C)c3C)c2)C2=CN=NC2NC2=C1C(=O)NC(C)(C)C2 (some centres not stated) [US20250313563, Compound 948188] | > 5000 nM | 1000 to 5000 nM
CCC1(c2cccc(C(F)(F)F)c2)C2=C(NC3=NN=CC31)c1ccccc1C2=O (configuration not stated) [US20250313563, Compound 948205] | < 100 nM and 100 to 1000 nM | < 100 nM and 100 to 1000 nM
CC1(C)CC(=O)C2=C(C1)NC1=C(CN=N1)[C@]21COC2(CN(C(=O)[C@H]3CC3(F)F)C2)C1 [US20250313563, Compound 948215] | < 100 nM and 100 to 1000 nM | < 100 nM and 100 to 1000 nM
CC1(C)CC(=O)C2=C(C1)NC1=C(CN=N1)[C@@]21COC2(CN(C(=O)[C@H]3CC3(F)F)C2)C1 [US20250313563, Compound 948217] | 1000 to 5000 nM | 100 to 1000 nM
CC1(C)CC(=O)C2=C(C1)NC1=C(CN=N1)[C@]21COC2(CN(C(=O)[C@@H]3CC3(F)F)C2)C1 [US20250313563, Compound 948219] | < 100 nM and 1000 to 5000 nM | < 100 nM and 100 to 1000 nM
CC1(C)CC(=O)C2=C(C1)NC1=C(CN=N1)[C@@]21COC2(CN(C(=O)[C@@H]3CC3(F)F)C2)C1 [US20250313563, Compound 948221] | 100 to 1000 nM | 100 to 1000 nM
Cc1cc(C)cc(C(=O)N2CC3(C2)C[C@]2(CO3)C3=C(N=NC3)NC3=C2C(=O)CC(C)(C)C3)c1 [US20250313563, Compound 948222] | 1000 to 5000 nM | 100 to 1000 nM
Cc1cc(C)cc(C(=O)N2CC3(C2)C[C@@]2(CO3)C3=C(N=NC3)NC3=C2C(=O)CC(C)(C)C3)c1 [US20250313563, Compound 948223] | < 100 nM and 100 to 1000 nM | < 100 nM and 100 to 1000 nM
CC[C@]1(c2cccc(C(F)(F)F)c2)C2=CN=NC2NC2=C1C(=O)N(c1ccc(F)cc1)CC2 (some centres not stated) [US20250313563, Compound 948224] | 100 to 1000 nM | < 100 nM
